Patent publication US20250313575A1, “MACROCYCLES AS LRRK2 INHIBITORS, PHARMACEUTICAL COMPOSITIONS, AND USES THEREOF” (Merck Sharp & Dohme LLC, priority 2022, published 2025)

What follows are compounds tested against GST-tagged truncated human mutant G2019S LRRK2 (Homo sapiens (Human), UniProt Q5S007, G2019S) (assay: LRRK2 G2019S Km ATP LanthaScreen assay). Details: G2019S LRRK2, 134 μM ATP (Km ATP), LRRKtide substrate.
Format: biochemical
Method in brief: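 TR-FRET assay with GST-tagged truncated human G2019S LRRK2 (1.25 nM), preincubated with compound 15 min, then reacted with fluorescein-LRRKtide and 134 μM ATP (Km) in Tris pH 8.5 buffer, 90 min, ambient temperature. Tb-anti-phospho-LRRKtide detection, 520/495 nm ratio; IC50 by 4-parameter logistic fit, top concentration 9.99 μM in DMSO, 10 points.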

Sequence of GST-tagged truncated human mutant G2019S LRRK2 (Q5S007 970-2527 G2019S): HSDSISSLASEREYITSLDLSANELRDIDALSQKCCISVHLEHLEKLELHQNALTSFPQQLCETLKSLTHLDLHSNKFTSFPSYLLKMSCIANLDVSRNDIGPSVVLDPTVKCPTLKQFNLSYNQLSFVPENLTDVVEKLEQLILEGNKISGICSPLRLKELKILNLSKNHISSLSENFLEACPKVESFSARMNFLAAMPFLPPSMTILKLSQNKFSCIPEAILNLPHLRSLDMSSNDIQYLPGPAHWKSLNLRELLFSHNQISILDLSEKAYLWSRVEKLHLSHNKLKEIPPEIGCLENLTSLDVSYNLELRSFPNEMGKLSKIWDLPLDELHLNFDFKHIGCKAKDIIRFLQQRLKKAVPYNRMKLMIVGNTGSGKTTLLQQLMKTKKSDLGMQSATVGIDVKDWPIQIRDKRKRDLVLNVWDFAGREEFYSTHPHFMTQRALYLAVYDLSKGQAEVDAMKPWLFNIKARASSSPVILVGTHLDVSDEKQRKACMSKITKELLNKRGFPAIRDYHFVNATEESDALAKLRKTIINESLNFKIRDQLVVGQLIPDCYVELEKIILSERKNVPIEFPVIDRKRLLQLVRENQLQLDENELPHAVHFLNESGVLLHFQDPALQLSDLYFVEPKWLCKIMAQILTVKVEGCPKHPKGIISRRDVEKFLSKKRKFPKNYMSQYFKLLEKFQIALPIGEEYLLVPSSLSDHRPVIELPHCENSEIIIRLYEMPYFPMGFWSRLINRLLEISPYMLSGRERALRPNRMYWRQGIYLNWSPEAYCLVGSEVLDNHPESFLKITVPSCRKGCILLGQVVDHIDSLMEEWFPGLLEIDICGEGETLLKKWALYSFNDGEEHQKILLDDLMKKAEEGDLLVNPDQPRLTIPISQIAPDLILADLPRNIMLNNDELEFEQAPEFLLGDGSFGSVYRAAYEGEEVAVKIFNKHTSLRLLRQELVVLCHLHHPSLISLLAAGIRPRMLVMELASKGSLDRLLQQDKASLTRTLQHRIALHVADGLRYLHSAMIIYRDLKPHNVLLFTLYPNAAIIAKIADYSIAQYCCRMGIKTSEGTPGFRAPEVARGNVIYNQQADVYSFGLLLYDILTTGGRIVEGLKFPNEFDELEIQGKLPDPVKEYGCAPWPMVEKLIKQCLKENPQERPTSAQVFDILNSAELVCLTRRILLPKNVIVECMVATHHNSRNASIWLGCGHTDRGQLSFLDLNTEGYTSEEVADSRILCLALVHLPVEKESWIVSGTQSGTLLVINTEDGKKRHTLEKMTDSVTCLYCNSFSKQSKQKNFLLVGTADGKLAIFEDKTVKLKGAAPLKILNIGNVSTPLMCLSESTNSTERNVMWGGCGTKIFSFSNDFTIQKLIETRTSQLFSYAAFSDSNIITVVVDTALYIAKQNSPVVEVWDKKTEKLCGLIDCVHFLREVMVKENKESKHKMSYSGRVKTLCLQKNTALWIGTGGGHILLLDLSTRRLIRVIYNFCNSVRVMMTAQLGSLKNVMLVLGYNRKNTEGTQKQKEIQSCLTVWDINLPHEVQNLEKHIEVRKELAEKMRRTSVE

Row | Compound | LRRK2 pIC50
1 | Cn1nc(C2CC2)c2c1OCC1CCC1Nc1nc(ncc1C(F)(F)F)N2 [Ex-1.8, (10aR,12aS)- or (10aS,12aR)-3-cyclopropyl-1-methyl-8-(trifluoromethyl)-1,4,10,10a,11,12,12a,13-octahydro-5,9-(azeno)cyclobuta[k]pyrazolo-[3,4-b][1]oxa[4,6,10]triazacyclo-tridecine] | 5.94
2 | Cn1nc(C2CC2)c2c1OCC1CCC1Nc1nc(ncc1C(F)(F)F)N2 [Ex-1.9, (10aR,12aS)- or (10aS,12aR)-3-cyclopropyl-1-methyl-8-(trifluoromethyl)-1,4,10,10a,11,12,12a,13-octahydro-5,9-(azeno)cyclobuta[k]pyrazolo-[3,4-b][1]oxa[4,6,10]triazacyclo-tridecine] | >10.09
3 | Cn1nc(C2CC2)c2c1OCC1CCC1Nc1nc(ncc1C(F)(F)F)N2 [Ex-1.10, (10aR,12aR)- or (10aS,12aS)-3-cyclopropyl-1-methyl-8-(trifluoromethyl)-1,4,10,10a,11,12,12a,13-octahydro-5,9-(azeno)cyclobuta[k]pyrazolo-[3,4-b][1]oxa[4,6,10]triazacyclo-tridecine] | 6.58
4 | Cn1nc(C2CC2)c2c1OCC1CCC1Nc1nc(ncc1C(F)(F)F)N2 [Ex-1.11, (10aR,12aR)- or (10aS,12aS)-3-cyclopropyl-1-methyl-8-(trifluoromethyl)-1,4,10,10a,11,12,- 12a,13-octahydro-5,9-(azeno)cyclobuta[k]pyrazolo[3,4-b][1]oxa[4,6,10]triazacyclotridecine] | >10.09
5 | CCOC(=O)C(C)(C)n1nc(C(C)C)c2c1OCC[C@@H](C)Nc1nc(ncc1C(F)(F)F)N2 [Ex-1.12, ethyl (R)-2-(3-isopropyl-11-methyl-8-(trifluoromethyl)-10,11,12,13-tetrahydro-5,9-(azeno)pyrazolo[3,4-b][1]oxa[4,6,10]triazacyclotridecin-1(4H)-yl)-2-methylpropanoate] | <5.00
6 | Cn1nc(C(F)(F)F)c2c1OC[C@@H]1COC[C@H]1Nc1nc(ncc1Cl)N2 [Ex-1.13, (10aS,13aS)-8-chloro-1-methyl-3-(trifluoromethyl)-1,4,10a,11,13a,14-hexahydro-10H,13H-5,9-(azeno)furo[3,4-k]pyrazolo[3,4-b][1]oxa[4,6,10]triazacyclotridecine] | 7.99
7 | CC(C)c1nn(C(C)(C)C#N)c2c1Nc1ncc(C(F)(F)F)c(n1)N[C@@H]1COC[C@H]1CO2 [Ex-1.14, 2-((10aS,13aS)-3-isopropyl-8-(trifluoromethyl)-10a,11,13a,14-tetrahydro-10H,13H-5,9-(azeno)furo[3,4-k]pyrazolo[3,4-b][1]oxa[4,6,10]triazacyclotridecin-1(4H)-yl)-2-methylpropanenitrile] | 8.66
8 | CC(C)c1nn(C(C)(C)C#N)c2c1Nc1ncc(C3CC3)c(n1)N[C@@H]1COC[C@H]1CO2 [Ex-1.15, 2-((10aS,13aS)-8-cyclopropyl-3-isopropyl-10a,11,13a,14-tetrahydro-10H,13H-5,9-(azeno)furo[3,4-k]pyrazolo[3,4-b][1]oxa[4,6,10]triazacyclotridecin-1(4H)-yl)-2-methylpropanenitrile] | 8.27
9 | CC(C)c1nn(C(C)(C)C#N)c2c1Nc1ncc(Cl)c(n1)N[C@@H]1COC[C@H]1CO2 [Ex-1.16, 2-((10aS,13aS)-8-chloro-3-isopropyl-10a,11,13a,14-tetrahydro-10H,13H-5,9-(azeno)furo[3,4-k]pyrazolo[3,4-b][1]oxa[4,6,10]triazacyclotridecin-1(4H)-yl)-2-methylpropanenitrile] | 9.76
10 | CC(C)(C#N)n1nc(C2CC2)c2c1OC[C@@H]1CC[C@H]1Nc1nc(ncc1C(F)(F)F)N2 [Ex-1.17, 2-((10aR,12aR)-3-cyclopropyl-8-(trifluoromethyl)-10,10a,11,12,12a,13-hexahydro-5,9-(azeno)cyclobuta[k]pyrazolo[3,4-b][1]oxa[4,6,10]triazacyclotridecin-1(4H)-yl)-2-methylpropanenitrile] | >10.09
11 | CC(C)c1nn(C2CCOC2)c2c1Nc1ncc(C(F)(F)F)c(n1)N[C@@H]1CC[C@H]1CO2 (stereo partly drawn) [Ex-1.18, (10aR,12aR)-3-isopropyl-1-((R)- or (10aR,12aR)-3-isopropyl-1-((S)-tetrahydrofuran-3-yl)-8-(trifluoromethyl)-1,4,10,10a,11,12,12a,13-octahydro-5,9-(azeno)cyclobuta[k]pyrazolo[3,4-b][1]oxa[4,6,10]triazacyclotridecine] | >10.09
12 | Cn1nc(C(F)(F)F)c2c1OC[C@@H]1CC[C@H]1Nc1nc(ncc1Cl)N2 [Ex-1.19, (10aR,12aR)-8-chloro-1-methyl-3-(trifluoromethyl)-1,4,10,10a,11,12,12a,13-octahydro-5,9-(azeno)cyclobuta[k]pyrazolo[3,4-b][1]oxa[4,6,10]triazacyclotridecine] | 9.87
13 | CCn1nc(C(F)(F)F)c2c1OC[C@@H]1COC[C@H]1Nc1nc(ncc1Cl)N2 [Ex-1.20, (10aS,13aS)-8-chloro-1-ethyl-3-(trifluoromethyl)-1,4,10a,11,13a,14-hexahydro-10H,13H-5,9-(azeno)furo[3,4-k]pyrazolo[3,4-b][1]oxa[4,6,10]triazacyclotridecine] | 9.42
14 | CC(C)(O)Cn1nc(C2CC2)c2c1OC[C@@H]1CC[C@H]1Nc1nc(ncc1C(F)(F)F)N2 [Ex-1.21, 1-((10aR,12aR)-3-cyclopropyl-8-(trifluoromethyl)-10,10a,11,12,12a,13-hexahydro-5,9-(azeno)cyclobuta[k]pyrazolo[3,4-b][1]oxa[4,6,10]triazacyclotridecin-1(4H)-yl)-2-methylpropan-2-ol] | >10.09
15 | CC(C)c1n[nH]c2c1Nc1ncc(C(F)(F)F)c(n1)N[C@@H]1CC[C@H]1CO2 [Ex-1.22, (10aR,12aR)-3-isopropyl-8-(trifluoromethyl)-1,4,10,10a,11,12,12a,13-octahydro-5,9-(azeno)cyclobuta[k]pyrazolo[3,4-b][1]oxa[4,6,10]triazacyclotridecine] | >10.09
16 | Cc1nn(C)c2c1Nc1ncc(C(F)(F)F)c(n1)NCC1(CC1)CO2 [Ex-1.23, 1′,3′-dimethyl-8′-(trifluoromethyl)-1′,4′,10′,11′-tetrahydro-13′H-spiro[cyclopropane-1,12′-[5,9](azeno)pyrazolo[3,4-b][1]oxa[4,6,10]triazacyclotridecine]] | 9.47
17 | Cc1nn(C2CCC2)c2c1OC[C@@H]1CC[C@H]1Nc1nc(ncc1C(F)(F)F)N2 [Ex-2.3, (10aR,12aR)- or (10aS,12aS)-3-Cyclobutyl-1-methyl-8-(trifluoromethyl)-3,4,10,10a,11,12,12a,13-octahydro-5,9-(azeno)cyclobuta[k]pyrazolo[4,3-b][1]oxa[4,6,10]triazacyclotridecine] | 9.12
18 | Cc1nn(C2CCC2)c2c1OC[C@@H]1CC[C@H]1Nc1nc(ncc1C(F)(F)F)N2 [Ex-2.4, (10aR,12aR)- or (10aS,12aS)-3-Cyclobutyl-1-methyl-8-(trifluoromethyl)-3,4,10,10a,11,12,12a,13-octahydro-5,9-(azeno)cyclobuta[k]pyrazolo[4,3-b][1]oxa[4,6,10]triazacyclotridecine] | 6.66
19 | Cc1nn(C)c2c1OCC1(CC1)CNc1nc(ncc1C(F)(F)F)N2 [Ex-2.5, 1′,3′-dimethyl-10′-(trifluoromethyl)-1′,7′,8′,14′-tetrahydro-5′H-spiro[cyclopropane-1,6′-[9,13](azeno)pyrazolo[4,3-b][1]oxa[4,6,10]triazacyclotridecine]] | >10.09
20 | Cc1nn(C)c2c1OCC1CC[C@H]1Nc1nc(ncc1C(F)(F)F)N2 (stereo partly drawn) [Ex-2.10, (10aR,12aR)- or (10aS,12aS)-1,3-dimethyl-8-(trifluoromethyl)-3,4,10,10a,11,12,12a,13-octahydro-5,9-(azeno)cyclobuta[k]pyrazolo[4,3-b][1]oxa[4,6,10]triazacyclotridecine] | >10.09
21 | Cc1nn(C)c2c1OCC1CC[C@H]1Nc1nc(ncc1C(F)(F)F)N2 (stereo partly drawn) [Ex-2.11, (10aR,12aS)- or (10aS,12aR)-1,3-dimethyl-8-(trifluoromethyl)-3,4,10,10a,11,12,12a,13-octahydro-5,9-(azeno)cyclobuta[k]pyrazolo[4,3-b][1]oxa[4,6,10]triazacyclotridecine] | >10.09
22 | Cc1nn(C)c2c1OCC1CC[C@H]1Nc1nc(ncc1C(F)(F)F)N2 (stereo partly drawn) [Ex-2.12, (10aR,12aS)- or (10aS,12aR)-1,3-dimethyl-8-(trifluoromethyl)-3,4,10,10a,11,12,12a,13-octahydro-5,9-(azeno)cyclobuta[k]pyrazolo[4,3-b][1]oxa[4,6,10]triazacyclotridecine] | 7.61
23 | Cc1nn(C)c2c1OCC1CC[C@H]1Nc1nc(ncc1C(F)(F)F)N2 (stereo partly drawn) [Ex-2.13, (10aR,12aS)- or (10aS,12aR)-1,3-dimethyl-8-(trifluoromethyl)-3,4,10,10a,11,12,12a,13-octahydro-5,9-(azeno)cyclobuta[k]pyrazolo[4,3-b][1]oxa[4,6,10]triazacyclotridecine] | >10.09
24 | Cc1nn(C)c2c1OC[C@H]1COC[C@H]1Nc1nc(ncc1C(F)(F)F)N2 [Ex-2.24, (10aS,13aR)- or (10aR,13aS)-1,3-dimethyl-8-(trifluoromethyl)-3,4,10a,11,13a,14-hexahydro-10H,13H-5,9-(azeno)furo[3,4-k]pyrazolo[4,3-b][1]oxa[4,6,10]triazacyclotridecine] | 6.05
25 | Cc1nn(C2CCC2)c2c1OC[C@@H]1COC[C@H]1Nc1nc(ncc1C(F)(F)F)N2 [Ex-2.28, (3aR,15aR)- or (3aS,15aS)-11-cyclobutyl-13-methyl-6-(trifluoromethyl)-2,3,3a,4,10,11,15,15a-octahydro-5,9-(azeno)furo[3,2-k]pyrazolo[4,3-b][1]oxa[4,6,10]triazacyclotridecine] | 9.64
